Reference: US20210267240A1, “PHOTODETERIORATION INHIBITOR, BEVERAGE COMPRISING THE SAME, AND METHOD FOR INHIBITING PHOTODETERIORATION” (Mitsubishi Gas Chemical Company, Inc., priority 2018, published 2021)

Test: Light irradiation storage test of aqueous pyrroloquinoline quinone disodium salt solution in a transparent PET container, HPLC recovery
Type: physicochemical
Conditions: used alone, without combination partner
Experimental: HPLC conditions: Shimadzu LC-2010 Column: YMC-Pack ODS-A Detection wavelength: 259 nm Mobile phase: 30 mM acetic acid-70 mM ammonium acetate Column temperature: 40° C. Light irradiation apparatus: A plant incubator CLH-301 manufactured by Tomy Seiko Co., Ltd. Light irradiation conditions: 30° C. and 20,000Lx All the contents of Volvic that is a commercially available PET bottle beverage, were removed and the container was washed with water. This transparent container was used as a storage container. 5 to 500 mg of BioPQQ was dissolved in 500 g of water, and the relationship between the concentration and the photodeterioration of BioPQQ was examined. First, a mixture of pyrroloquinoline quinone disodium salt and water was added to the storage container, shaken well, and then submitted to ultrasonication for 1 minute to dissolve the salt. The pH was 3.5. The prepared aqueous solution of pyrroloquinoline quinone disodium salt was stored under the above light irradiation conditions. The concentration of pyrroloquinoline quinone was analyzed by HPLC 5 days after the light irradiation. […] 20 mg of BioPQQ was dissolved in 500 g of water ([…]) in the same manner as described above. To this aqueous solution, 100 mg of Red No. 2 was further added (Example A1). […]

O=C1O[C@H]([C@@H](O)CO)C(O)=C1O [ascorbic acid]
photodeterioration inhibition effect (in words): has a photodeterioration inhibition effect
